Literature values in patent publication US20200188326A1, “COMPOSITIONS AND METHODS OF TREATMENT FOR MVID AND RELATED DISEASES” (Vanessa Research, Inc., priority 2015, published 2020).

Test system: SLC26A3 exchanger
Details: in the intestine

## Vitamin A
  upregulation of the expression of SLC26A3 exchanger: up to 4 fold
